Data taken from patent US20170121344A1 (Siga Technologies, Inc., priority 2009, published 2017).
Where two headings read alike, the source gives them in different places.

Tested on: Dengue-2 (Strain New Guinea C)
Test: Viral yield assay against Dengue-2 in Vero cells
Assay type: cell-based, Dengue virus
Details: Dengue virus
Experimental: Compounds that were active in the primary screen were tested for activity in viral yield assays. […] Vero cells in 12-well plates were infected with dengue-2 virus at a multiplicity of infection (MOI) of 0.1, treated with compound (or DMSO as a control), incubated at 37° C., harvested 48 hours post infection and titered on Vero cells as described above. The EC50 was calculated through ExcelFit. Activities against other serotypes of dengue virus were determined in a similar way.

[1] = DENV2, viral yield assay, Vero cells, MOI 0.1, 48 hours post infection, read-out: Activity (EC50 in μM) DENV-2
[2] = Vero cells, MOI 0.1, harvested 48 hours post infection, read-out: Activity (EC50 class) against Dengue-2 Virus in Vero cells
[3] = Vero, 48 h, read-out: Activity (EC50 class) against Dengue-2 Virus in Vero cells

Compound	EC50 [1]	EC50 [2]	also measured
COc1cccc(-c2ccc3c(N)c(C(=O)Nc4cc(OC)c(OC)c(OC)c4)sc3n2)c1 [Compound 520, 3-amino-6-(3-methoxyphenyl)-N-(3,4,5-trimethoxyphenyl)thieno[2,3-b]pyridine-2-carboxamide]	< 5 µM	–	–
COCc1cc(C)nc2sc3c(=O)n(-c4ccc(C)cc4C)nnc3c12 [Compound 151, 3-(2,4-Dimethyl-phenyl)-9-methoxymethyl-7-methyl-3H-pyrido[3′,2′:4,5]thieno[3,2-d][1,2,3]triazin-4-one]	–	> 25 µM	–
COc1ccc(-c2ccc3c(N)c(C(=O)Nc4cccc(Cl)c4)sc3n2)cc1OC [Compound 540, 3-amino-N-(3-chlorophenyl)-6-(3,4-dimethoxyphenyl)thieno[2,3-b]pyridine-2-carboxamide]	< 5 µM	–	–
CC1(C)Cc2c(c(N3CCOCC3)nc3sc(C(N)=O)c(N)c23)CO1 [Compound 169, 1-Amino-8,8-dimethyl-5-morpholin-4-yl-8,9-dihydro-6H-7-oxa-3-thia-4-aza-cyclopenta[a]naphthalene-2-carboxylic acid amide]	–	–	EC50 [3]: > 25 µM
Cc1cc(C)c2c(N)c(C(=O)Nc3ccc(F)c(Cl)c3)sc2n1 [Compound 200, 3-Amino-4,6-dimethyl-thieno[2,3-b]pyridine-2-carboxylic acid (3-chloro-4-fluoro-phenyl)-amide]	–	–	EC50 [3]: > 25 µM
CCN1CCc2nc3sc(C(=O)Nc4ccccc4OC(F)(F)F)c(N)c3cc2C1 [Compound 40, 3-Amino-6-ethyl-5,6,7,8-tetrahydro-thieno[2,3-b][1,6]naphthyridine-2-carboxylic acid (2-trifluoromethoxy-phenyl)-amide]	–	< 5 µM	–
COC(=O)c1cc(OC)c(OC)cc1NC(=O)c1sc2nc3c(cc2c1N)CN(C)CC3 [Compound 263, 2-[(3-Amino-6-methyl-5,6,7,8-tetrahydro-thieno[2,3-b][1,6]naphthyridine-2-carbonyl)-amino]-4,5-dimethoxy-benzoic acid methyl ester]	–	> 25 µM	–
CN1CCc2nc3sc(C(=O)Nc4ccc(F)c(F)c4)c(N)c3cc2C1 [Compound 16, 3-Amino-6-methyl-5,6,7,8-tetrahydro-thieno[2,3-b][1,6]naphthyridine-2-carboxylic acid (3,4-difluoro-phenyl)-amide]	–	< 5 µM	–
Nc1c(C(=O)Nc2nnc(-c3ccccc3)s2)sc2nc3c(cc12)CCCC3 [Compound 53, 3-Amino-5,6,7,8-tetrahydro-thieno[2,3-b]quinoline-2-carboxylic acid (5-phenyl-[1,3,4]thiadiazol-2-yl)-amide]	–	< 5 µM	–
CCc1c(C)nc2sc(C(N)=O)c(N)c2c1C [Compound 160, 3-Amino-5-ethyl-4,6-dimethyl-thieno[2,3-b]pyridine-2-carboxylic acid amide]	–	> 25 µM	–
CCc1ccccc1NC(=O)c1sc2nc3c(c(-c4ccco4)c2c1N)CCC3 [Compound 219, 3-Amino-4-furan-2-yl-6,7-dihydro-5H-cyclopenta[b]thieno[3,2-e]pyridine-2-carboxylic acid (2-ethyl-phenyl)-amide]	–	> 25 µM	–
O=c1[nH]cnc2c1sc1nc(-c3cccs3)ccc12 [Compound 412, 7-(thiophen-2-yl)pyrido[3′,2′:4,5]thieno [3,2-d]pyrimidin-4(3H)-one]	5 to 25 µM	–	–
Cc1nc2c(sc3nc4c(cc32)COC(C)(C)C4)c(=O)n1CC1CCCO1 (stereo not shown) [Compound 236, 3,8,8-Trimethyl-2-(tetrahydro-furan-2-ylmethyl)-8,9-dihydro-2H,6H-7-oxa-11-thia-2,4,10-triaza-benzo[b]fluoren-1-one]	–	> 25 µM	–
N#Cc1ccc(NC(=O)c2sc3nc(N)c(C#N)cc3c2N)cc1 [Compound 152, 3,6-Diamino-5-cyano-thieno[2,3-b]pyridine-2-carboxylic acid (4-cyano-phenyl)-amide]	–	> 25 µM	–
COc1cccc(-c2ccc3c(N)c(C(=O)Nc4cccc(F)c4C)sc3n2)c1 [Compound 515, 3-amino-N-(3-fluoro-2-methyl-phenyl)-6-(3-methoxyphenyl)thieno[2,3-b] pyridine-2-carboxamide]	< 5 µM	–	–
CC(=O)Nc1nc2sc(C(=O)Nc3ccc(Br)cc3)c(N)c2c(-c2ccco2)c1C#N [Compound 324, 6-acetamido-3-amino-N-(4-bromophenyl)-5-cyano-4-(2-furyl)thieno[2,3-b]pyridine-2-carboxamide]	< 5 µM	–	–
CN1CCc2nc3sc(C(=O)NC(C)(C)C)c(N)c3cc2C1 [Compound 107, 3-Amino-6-methyl-5,6,7,8-tetrahydro-thieno[2,3-b][1,6]naphthyridine-2-carboxylic acid tart-butylamide]	–	–	EC50 [3]: 5 to 25 µM
COCc1cc(C)nc2sc3c(=O)n(-c4cccc5ccccc45)nnc3c12 [Compound 150, 9-Methoxymethyl-7-methyl-3-naphthalen-1-yl-3H-pyrido[3′,2′:4,5]thieno[3,2-d][1,2,3]triazin-4-one]	–	–	EC50 [3]: > 25 µM
Cc1cc(C)c2c(C)c(C(=O)N3CCN(c4cnccn4)CC3)sc2n1 [Compound 404]	< 5 µM	–	–

Compound	EC50 [1]	EC50 [2]	also measured
Cc1cnc2sc(C(=O)Nc3nnc(-c4ccccc4)s3)c(N)c2c1 [Compound 286, 3-amino-5-methyl-N-(5-phenyl-1,3,4-thiadiazol-2-yl)thieno[2,3-b]pyridine-2-carboxamide]	< 5 µM	–	–
CC(C)NC(=O)c1sc2nc3c(c(-c4cccs4)c2c1N)CN(C)CC3 [Compound 273, 3-Amino-6-methyl-4-thiophen-2-yl-5,6,7,8-tetrahydro-thieno[2,3-b][1,6]naphthyridine-2-carboxylic acid isopropylamide]	–	–	EC50 [3]: > 25 µM
CCOc1ccccc1NC(=O)c1sc2nc(-c3ccc(C)cc3)ccc2c1N [Compound 647, 3-amino-N-(2-ethoxyphenyl)-6-(p-tolyl)thieno[2,3-b]pyridine-2-carboxamide]	< 5 µM	–	–
COc1ccc(-c2ccc3c(N)c(C(=O)Nc4cccc(C)c4)sc3n2)cc1OC [Compound 633, 3-amino-6-(3,4-dimethoxyphenyl)-N-(m-tolyl)thieno[2,3-b]pyridine-2-carboxamide]	< 5 µM	–	–
COc1ccc(NC(=O)c2sc3nc(-c4ccccc4)cc(C(F)(F)F)c3c2N)cc1 [Compound 119, 3-Amino-6-phenyl-4-trifluoromethyl-thieno[2,3-b]pyridine-2-carboxylic acid (4-methoxy-phenyl)-amide]	–	> 25 µM	–
CN1CCc2nc3sc(C(=O)Nc4ccc(F)cc4F)c(N)c3cc2C1 [Compound 111, 3-Amino-6-methyl-5,6,7,8-tetrahydro-thieno[2,3-b][1,6]naphthyridine-2-carboxylic acid (2,4-difluoro-phenyl)-amide]	–	5 to 25 µM	–
Cc1cc(C)c2c(n1)sc1c(=O)n(-c3cccc(C(F)(F)F)c3)cnc12 [Compound 198, 7,9-Dimethyl-3-(3-trifluoromethyl-phenyl)-3H-pyrido[3′,2′:4,5]thieno[3,2-d]pyrimidin-4-one]	–	> 25 µM	–
COc1cccc(-c2ccc3c(N)c(C(=O)Nc4ccc(Cl)cc4F)sc3n2)c1 [Compound 519, 3-amino-N-(4-chloro-2-fluoro-phenyl)-6-(3-methoxyphenyl)thieno[2,3-b]pyridine-2-carboxamide]	< 5 µM	–	–
COc1cccc(-c2ccc3c(N)c(C(=O)Nc4cc(C(F)(F)F)ccc4Cl)sc3n2)c1 [Compound 560, 3-amino-N-[2-chloro-5-(trifluoromethyl)phenyl]-6-(3-methoxyphenyl)thieno [2,3-b]pyridine-2-carboxamide]	< 5 µM	–	–
Nc1c(C(=O)Nc2ccncc2)sc2nc(-c3cccc(C(F)(F)F)c3)ccc12 [Compound 653, 3-amino-N-(4-pyridyl)-6-[3-(trifluoromethyl)phenyl]thieno[2,3-b] pyridine-2-carboxamide]	< 5 µM	–	–
Nc1c(C(=O)Nc2ccccc2)sc2nc3c(cc12)CCC3 [Compound 173, 3-Amino-6,7-dihydro-5H-cyclopenta[b]thieno[3,2-e]pyridine-2-carboxylic acid phenylamide]	–	> 25 µM	–
Nc1c(C(=O)Nc2cccc(C(F)(F)F)c2)sc2nc(-c3ccc(F)cc3)ccc12 [Compound 456, 3-amino-6-(4-fluorophenyl)-N-[3-(trifluoromethyl)phenyl]thieno[2,3-b] pyridine-2-carboxamide]	< 5 µM	–	–
C=C(C)Cn1cnc2c(sc3nc4c(cc32)COC(C)(C)C4)c1=O [Compound 203, 8,8-Dimethyl-2-(2-methyl-allyl)-8,9-dihydro-2H,6H-7-oxa-11-thia-2,4,10-triaza-benzo[b]fluoren-1-one]	–	> 25 µM	–
Nc1c(C(=O)Nc2cccc(C(F)(F)F)c2)sc2nc(C(F)(F)F)ccc12 [Compound 317, 3-amino-6-(trifluoromethyl)-N-[3-(trifluoromethyl)phenyl]thieno[2,3-b]pyridine-2-carboxamide]	< 5 µM	–	–
COCc1cc(C)nc2sc(C(=O)Nc3cc(Cl)ccc3Cl)c(N)c12 [Compound 211, 3-Amino-4-methoxymethyl-6-methyl-thieno[2,3-b]pyridine-2-carboxylic acid (2,5-dichloro-phenyl)-amide]	–	> 25 µM	–
Nc1c(C(=O)Nc2ccc(F)cc2)sc2nc3c(cc12)CCC3 [Compound 177, 3-Amino-6,7-dihydro-5H-cyclopenta[b]thieno[3,2-e]pyridine-2-carboxylic acid (4-fluoro-phenyl)-amide]	–	> 25 µM	–
Cc1ccc(-c2ccc3c(N)c(C(=O)Nc4ccccc4)sc3n2)cc1 [Compound 642, 3-amino-N-phenyl-6-(p-tolyl)thieno[2,3-b]pyridine-2-carboxamide]	< 5 µM	–	–
CN(C)CCN(C(=O)c1sc2nc(-c3cccs3)ccc2c1N)c1cccc(C(F)(F)F)c1 [Compound 323, 3-amino-N-(2-dimethylaminoethyl)-6-(2-thienyl)-N-[3-(trifluoromethyl)phenyl]thieno[2,3-b]pyridine-2-carboxamide]	< 5 µM	–	–
